Measured values as given in ChEMBL document CHEMBL1201862, “PubChem BioAssay data set” (2004).
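Growth conditions: 96-well plates. Treatment: test compound, 48 hours, 5 concentrations. Analysis: linear interpolation between bracketing concentrations; unreached endpoints set to highest concentration. Abbreviation: GI50, concentration required for 50% inhibition of growth.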 Activity calls are given as the source filed them. No stated cut-off is given here; in the data, active = GI50 up to about 1.1 µM and inactive = higher.

What was measured:
Assay in all cases: NCI-60 cell line screen, 48 h
MOLT-4 = test system: MOLT-4
K562 = test system: K562
HOP-18 = test system: HOP-18
UO-31 = test system: UO-31
RPMI-8226 = test system: RPMI-8226
SNB-19 = test system: SNB-19
NCI-H226 = test system: NCI-H226
OVCAR-5 = test system: OVCAR-5
HCT-15 = test system: HCT-15
SK-MEL-28 = test system: SK-MEL-28
SW-620 = test system: SW-620
UACC-257 = test system: UACC-257
IGROV-1 = test system: IGROV-1
SF-268 = test system: SF-268
SK-MEL-2 = test system: SK-MEL-2
HOP-62 = test system: HOP-62
OVCAR-8 = test system: OVCAR-8
Hs-578T = test system: Hs-578T
DU-145 = test system: DU-145
MDA-N = test system: MDA-N

Measured: GI50

C=CC(=O)NCNC(=O)C=C
inactive: MOLT-4 > 100 µM | K562 > 100 µM | HOP-18 > 100 µM | UO-31 > 100 µM | RPMI-8226 > 100 µM | SNB-19 > 100 µM | NCI-H226 > 100 µM | OVCAR-5 > 100 µM | SK-MEL-28 > 100 µM | SW-620 > 100 µM | UACC-257 > 100 µM | IGROV-1 > 100 µM | SF-268 > 100 µM | SK-MEL-2 > 100 µM | HOP-62 > 100 µM | OVCAR-8 > 100 µM
> 100 µM: HCT-15

Cc1cc(Cl)ccc1NC(=O)C(=O)Cc1ccc([N+](=O)[O-])c([N+](=O)[O-])c1CC(=O)C(=O)Nc1ccc(Cl)cc1C
> 100 µM: HCT-15
inactive: MOLT-4 > 100 µM | K562 > 100 µM | HOP-18 > 100 µM | UO-31 > 100 µM | RPMI-8226 > 100 µM | SNB-19 > 100 µM | NCI-H226 > 100 µM | OVCAR-5 > 100 µM | SK-MEL-28 > 100 µM | SW-620 > 100 µM | UACC-257 > 100 µM | IGROV-1 > 100 µM | SF-268 > 100 µM | SK-MEL-2 > 100 µM | HOP-62 > 100 µM | OVCAR-8 > 100 µM

NC(=O)c1csc(C2CCC(CO)O2)n1 (configuration not stated)
> 100 µM: HCT-15
inactive: MOLT-4 > 100 µM | K562 > 100 µM | HOP-18 > 100 µM | UO-31 > 100 µM | RPMI-8226 > 100 µM | SNB-19 > 100 µM | NCI-H226 > 100 µM | OVCAR-5 > 100 µM | SK-MEL-28 > 100 µM | SW-620 > 100 µM | UACC-257 > 100 µM | IGROV-1 > 100 µM | SF-268 > 100 µM | SK-MEL-2 > 100 µM | HOP-62 > 100 µM | OVCAR-8 > 100 µM

CC(C)(C)C[P+](C)(C)c1ccccc1
> 100 µM: HCT-15
inactive: MOLT-4 > 100 µM | K562 34.4 µM | HOP-18 > 100 µM | UO-31 > 100 µM | RPMI-8226 > 100 µM | SNB-19 > 100 µM | NCI-H226 > 100 µM | OVCAR-5 76 µM | SK-MEL-28 > 100 µM | SW-620 > 100 µM | UACC-257 > 100 µM | IGROV-1 > 100 µM | SF-268 > 100 µM | SK-MEL-2 > 100 µM | HOP-62 > 100 µM | OVCAR-8 > 100 µM

NS(=O)(=O)c1ccc(NC(=O)CC(=O)Nc2ccc(S(N)(=O)=O)cc2)cc1
inactive: MOLT-4 > 100 µM | K562 > 100 µM | HOP-18 > 100 µM | UO-31 > 100 µM | RPMI-8226 > 100 µM | SNB-19 > 100 µM | NCI-H226 > 100 µM | OVCAR-5 > 100 µM | SK-MEL-28 > 100 µM | SW-620 > 100 µM | UACC-257 > 100 µM | IGROV-1 > 100 µM | SF-268 > 100 µM | SK-MEL-2 > 100 µM | HOP-62 > 100 µM | OVCAR-8 > 100 µM
> 100 µM: HCT-15

CCOC(=O)C1=C(C(=O)OCC)C2(c3ccccc3)N(O1)c1ccccc1C2(C)C (configuration not stated)
inactive: MOLT-4 32 µM | K562 42.7 µM | HOP-18 23.3 µM | UO-31 20.6 µM | RPMI-8226 20.7 µM | SNB-19 38.3 µM | NCI-H226 32.4 µM | OVCAR-5 99.3 µM | SK-MEL-28 44.6 µM | SW-620 94.8 µM | UACC-257 39.2 µM | IGROV-1 41.8 µM | SF-268 31.2 µM | SK-MEL-2 30.9 µM | HOP-62 37.6 µM | OVCAR-8 48.3 µM

COc1cc(CNc2nc3c(N)cc(C(F)(F)F)cc3nc2-c2ccccc2)cc(OC)c1OC
14.9 µM: HCT-15
inactive: MOLT-4 8.83 µM | K562 12.1 µM | HOP-18 > 10 µM | UO-31 16.8 µM | RPMI-8226 47.3 µM | SNB-19 > 10 µM | NCI-H226 50.2 µM | OVCAR-5 37.4 µM | SK-MEL-28 53.5 µM | SW-620 85.1 µM | UACC-257 63 µM | IGROV-1 > 10 µM | SF-268 50.8 µM | SK-MEL-2 52.1 µM | HOP-62 39.5 µM | OVCAR-8 71.1 µM

CCN(CC)CCNC(=O)c1ccc(C)c(OCc2ccccc2)c1[N+](=O)[O-]
inactive: MOLT-4 28.7 µM | Hs-578T 28.6 µM | K562 19.2 µM | DU-145 > 90.2 µM | HOP-18 > 100 µM | UO-31 21 µM | RPMI-8226 25.8 µM | MDA-N 19.9 µM | SNB-19 > 80.7 µM | NCI-H226 44.8 µM | OVCAR-5 35.9 µM | SK-MEL-28 19.4 µM | SW-620 18.3 µM | UACC-257 19.1 µM | IGROV-1 62.8 µM | SF-268 63.2 µM | SK-MEL-2 21.2 µM | HOP-62 28.6 µM | OVCAR-8 > 100 µM
21 µM: HCT-15

O=C(CCc1nnc(S)[nH]1)Nc1ccc(Cl)c(Cl)c1
inactive: MOLT-4 45.8 µM | K562 9.1 µM | HOP-18 > 100 µM | UO-31 45.6 µM | RPMI-8226 > 100 µM | SNB-19 > 100 µM | NCI-H226 > 100 µM | OVCAR-5 33.8 µM | SK-MEL-28 71.6 µM | SW-620 41.3 µM | UACC-257 34.8 µM | IGROV-1 26.5 µM | SF-268 42.8 µM | SK-MEL-2 6.18 µM | HOP-62 20 µM | OVCAR-8 > 100 µM
6.25 µM: HCT-15

CC[n+]1c(/C=C/c2ccc(N(CCCl)CCCl)cc2)ccc2cc(Br)ccc21
inactive: MOLT-4 1.46 µM | HOP-18 6.14 µM | UO-31 15.1 µM | RPMI-8226 2.53 µM | SNB-19 1.22 µM | NCI-H226 1.82 µM | OVCAR-5 3.99 µM | SK-MEL-28 1.21 µM | SW-620 1.93 µM | SF-268 1.61 µM | HOP-62 3.43 µM | OVCAR-8 1.86 µM
active: K562 0.361 µM | UACC-257 1.11 µM | IGROV-1 0.574 µM | SK-MEL-2 0.382 µM
14.9 µM: HCT-15
